Data published in US3944549A, “Amino derivatives of 1,4-benzodioxan” (priority 1972, dated 1976).
Structures can show the parent of a compound that is named as a salt.

How the values were obtained:
[1] = tested on: adrenergic receptors; assay: α-blocking action: reversal of the hypertensive effect of adrenalin; type: in vivo, dogs; settings: for hypertensive effects of adrenalin: orally
[2] = Solubility in water; type: physicochemical
[3] = tested on: vertigo; assay: Vertigo in clinical tests; type: in vivo, man
[4] = Acute toxicity, intravenous, in mice; settings: mouse, in vivo; for LD50: read-out: LD-50 I.V. in mice; for NOAEL: read-out: Maximum non-toxic dose
[5] = tested on: femoral artery; assay: Vasodilating properties: injection into the femoral artery in dogs; type: in vivo; settings: for increase in flow rate of the femoral artery: injection into femoral artery
Method: On injection into the femoral artery, no effect is observed at doses of less than 100 μg/kg. […] At these doses, no effect is observed on the arterial pressure AP measured in accordance with the usual conditions.
When administered intra-arterially, the product of Example 6 is injected directly into the femoral artery. The flow rate is increased by 200% from a dose of 10 μg.

[6] = tested on: vertebral artery; assay: Vasodilating properties: injection into the vertebral artery in dogs; type: in vivo; settings: for decrease in arterial pressure: injection into vertebral artery
Method: On injection into the vertebral artery, no effect is observed at doses of less than 1 mg/kg. At a dose of 10 mg/kg, the flow rate increases by 37% and at a dose of 20 mg/kg it only increases by 27%. At these two doses, the arterial pressure decreases respectively by 14 and 28% although no effect had been observed during the injection into the femoral artery.

[7] = tested on: coronary flow rate; assay: Coronary flow rate and cardiac parameters in anaesthetised dogs, intravenous perfusion; type: in vivo
Method: (§1) During the series of pharmacological tests, the following parameters were used:
(§2) Cardiac work: this parameter (expressed in kgm/min.) is calculated according to the relationship: Cardiac work = average AP (mm Hg) × 1.36 = cardiac output (1/min.) × 10^-^3.
(§3) Ratio dp/dt: this parameter corresponds to the variation in pressure expressed in mm Hg per second (in English: Rate of rise of left ventricular pressure).
(§4) The technique used to measure the ratio dp/dt is as follows:
(§5) The cardiac output is determined in Beagle dogs weighing 10 to 15 kg, anesthetised with pentobarbital, by injecting Carbiogreen (1 mg in 0.5 ml) into the right ventricle. A catheter introduced via the carotid artery into the aorta makes it possible to aspirate arterial blood at the rate of 25 ml/min. and to pass it in front of the photoelectric cell of a Beckman cardiodensitometer. The results are interpreted in accordance with the Hamilton method.

[8] = tested on: man; assay: Clinical studies in man; type: in vivo; settings: tablets 50 mg or injectable ampoules 10 mg
Description: In clinical studies, good results were obtained in man by administering tablets such as: […]

[9] = tested on: acetylcholine, isoprenalin, peripheral vagus; assay: Effect on responses to acetylcholine, isoprenalin and stimulation of the peripheral vagus in dogs; settings: dog, in vivo
[10] = tested on: vertebral, femoral and mesenteric artery flow rates; assay: Vasodilating and cardiovascular properties on intravenous administration in dogs; settings: for increase in vertebral flow rate: 0.5 mg/kg i.v.
Method: as §1
Arterial pressure (abbreviated to AP): this parameter, expressed in mm Hg) is evaluated in accordance with the usual conditions.
Arterial resistance: this parameter (expressed in dynes/sec./cm^-^5) is calculated according to the ratio [formula] Cardiac index: this parameter is expressed in (ml/min.)/kg. Systolic index: this parameter is equal to the ratio cardiac index/frequency.
as §2, §3, §4, §5
(§6) In the case of intravenous administration, the tests were carried out on 4 anaesthetised dogs. The product is perfused intravenously over the course of 5 minutes at doses of 2.5, 5 and 10 mg/kg and, in one test, is administered intraduodenally at a dose of 10 mg/kg.

[11] = tested on: intestinal barrier; assay: Intraduodenal administration in dogs: cardiovascular effects and passage through the intestinal barrier; type: in vivo; settings: intraduodenally
Method: as §6

[12] = Analgesic activity, subcutaneous; type: in vivo; settings: injected subcutaneously
[13] = tested on: digestive ulcers; settings: TOLDY et al. 1966; cited from earlier work
[14] = third test, 0.5, 1, 2 and 4 mg/kg i.v. without stopping
[15] = injected locally into the femoral or vertebral artery

OCCN1CCN(CC2COc3ccccc3O2)CC1 (stereo not drawn) [Example 1, 1-[2-(1,4-Benzodioxanyl)-methyl]-4-(2-hydroxyethyl)-piperazine dihydrochloride]
α-blocking activity ([1]; administered parenterally): α-blocking | solubility in water [2]: soluble in water | vertigo [3]: caused vertigo in the majority of cases

OCCN1CCN(CC2COc3ccccc3O2)CC1 (stereo not drawn) [Example 2, 1-[2-(1,4-Benzodioxanyl)-methyl]-4-(2-hydroxyethyl)-piperazine hemifumarate]
LD50 [4]: 97 ± 2 mg/kg | NOAEL [4]: 90 mg/kg | effect on injection into the femoral artery ([5]; doses of less than 100 μg/kg): no effect | increase in flow rate of the femoral artery ([5]; 1 mg/kg): 34% | increase in flow rate of the femoral artery ([5]; 10 mg/kg): 90% | increase in flow rate of the femoral artery ([5]; 20 mg/kg): 67% | effect on the arterial pressure AP ([5]; injection into femoral artery, 1, 10, 20 mg/kg): no effect | effect on injection into the vertebral artery ([6]; doses of less than 1 mg/kg): no effect | decrease in arterial pressure ([6]; 10 mg/kg): 14% | decrease in arterial pressure ([6]; 20 mg/kg): 28% | cardiac work ([7]; 5 mg/kg i.v.): an increase in the cardiac work | duration of increase in maximum intraventricular pressure ([7]; 5 mg/kg i.v.): 1 h | duration of increase in ratio dp/dt ([7]; 5 mg/kg i.v.): more than 1 hour | duration of increase in the differential arterial pressure ([7]; 5 mg/kg i.v.): 1 h | duration of tachycardia ([7]; 5 mg/kg i.v.): more than 2 hours | time of maximum effect on coronary flow rate ([7]; 5 mg/kg i.v.): 1 h | duration of hypotension ([7]; 5 mg/kg i.v., can last): more than 2 hours | cardiac work ([7]; summary): increases the cardiac work | coronary irrigation ([7]; summary): increases the coronary irrigation | α-blocking / α-lytic action ([1]; conclusion or summary): acts as an α-lytic product | hypertensive effect of adrenalin ([1]; dogs): reverses the hypertensive effect of adrenalin in a lasting manner | hypertensive effects of adrenalin ([1]; dogs, 5 mg/kg): decreases the said effects | hypertensive effects of adrenalin ([1]; dogs, 7 mg/kg): inhibits them strongly | hypertensive effects of adrenalin ([1]; dogs, 10 mg/kg): overcomes the α + effect of adrenalin | results in clinical studies in man [8]: good results | effect of the stimulation of the peripheral vagus [9]: does not alter | effects of the injection of acetylcholine [9]: does not alter | effects of the injection of isoprenalin [9]: does not alter | duration of increase in flow rate of the vertebral artery ([10]; another test, 2 mg/kg i.v.): more than 1 hour | flow rate of the femoral artery ([10]; another test, 2 mg/kg i.v.): only increased greatly during the injection | pulse rate ([10]; first and second tests, i.v.): the pulse rate is increased and this effect persists during successive injections | effect of additional injections on the flow rate ([10]; first test, additional 0.5 and 5 mg/kg i.v.): no effect on the flow rate | increase in vertebral flow rate ([10]; second test, beginning of perfusion): 135% | increase in vertebral flow rate ([10]; second test, end of perfusion): 58% | effect of subsequent injections on the flow rate ([10]; second test, subsequent 1 and 2 mg/kg i.v.): no effect on the flow rate | dilation of arteries ([10]; summary): can dilate either the vertebral artery or the femoral artery or both | hypotensive effect ([10]; summary, higher dose): at a higher dose, it is hypotensive | tachycardiac properties ([10]; summary, low doses): possesses tachycardiac properties at low doses | femoral flow rate [10, 14]: is increased very much by the first injection, decreases during the subsequent injections | flow rate of the vertebral artery [10, 14]: increases at each of the injections up to the third | decrease in flow rate of the mesenteric artery ([10]; third test, 0.5, 1, 2 and 4 mg/kg i.v., at each injection): 25%

CC(C)(C)c1ccc2c(c1)OCC(CN1CCN(CCO)CC1)O2 (stereo not drawn) [Example 5, 1-[2-(6- or 7-{tertiarybutyl}-1,4-benzodioxanyl)-methyl]-4-(2-hydroxyethyl)-piperazine dihydrochloride]
LD50 [4]: 140 ± 8 mg/kg | NOAEL [4]: 100 mg/kg | femoral flow rate, local injection [5, 15]: increases both these flow rates in proportion to the doses, but with a preference for the femoral flow rate | vertebral flow rate, local injection [6, 15]: increases both these flow rates in proportion to the doses, but with a preference for the femoral flow rate | minimal effective dose ([11]; Canis lupus familiaris, intraduodenal, read-out: dose from which the pulse rate decreases): 7 mg/kg | vasodilating effect ([11]; successively 3.5, 7, 15 and 35 mg/kg): no vasodilating effect | analgesic activity [12]: analgesic activity of the morphine type | dose dependence of femoral vasodilating action ([10]; 2 dogs, i.v.): not proportional to the dose | dose from which femoral vasodilating action is maximum ([10]; 2 dogs, i.v.): 3.5 mg/kg | vertebral dilating action ([10]; 2 dogs, i.v.): no vertebral dilating action | bradycardia ([10]; 2 dogs, i.v., 15 mg/kg (last dose)): a bradycardia | femoral vasodilating action, maximum ([10]; 2 dogs, i.v., from 3.5 mg/kg, increase (+)): 60% | effect on the AP ([10]; 2 dogs, i.v., up to 15 mg/kg): no effect on the AP | vasodilating effect ([10]; summary): exclusively peripheral and very moderate vasodilating effect

OCCN1CCN(CC2COc3ccccc3O2)CC1 (stereo not drawn) [free base, 1-[2-(1,4-benzodioxanyl)-methyl]-4-(2-hydroxyethyl)-piperazine, reference compound]
α-blocking activity (counteracting the hypertensive effects of adrenalin) ([1]; orally to dogs): does not show any α-blocking activity | activity in the treatment of digestive ulcers [13]: devoid of such activity
